Molecular target: AMPK
Experiment: AMPK activation, enzyme-linked immunosorbent assay
Type: biochemical
Settings: EC50 for AMPK activation, ELISA
Outline: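 Kit-based immunoassay; compounds screened as activators; standard reagents and protocol.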

With `N#Cc1ccc(CN2CCC(NC(=O)c3ccc(N4CCC(Oc5ccc(C#N)cc5)CC4)nn3)CC2)cc1` [Compound 351, N-(1-(4-cyanobenzyl)piperidin-4-yl)-6-(4-(4-cyanophenoxy)piperidin-1-yl)pyridazine-3-carboxamide] the EC50 was less than 500 nM.

In the case of `CN1CCN(c2ccc(C(=O)C3CCN(C(=O)c4ccc(C(=O)Nc5ccc(Oc6ccc(F)cc6)nc5)cn4)CC3)cc2)CC1` [Compound 245, N-(6-(4-fluorophenoxy)pyridin-3-yl)-6-(4-(4-(4-methylpiperazin-1-yl)benzoyl)piperidine-1-carbonyl)nicotinamide], the EC50 is reported as less than 500 nM.

For `CN(C)c1ccc(OC2CCN(C(=O)c3ccc(C(=O)NC4CCN(Cc5ccc(C#N)cc5)CC4)cn3)CC2)cc1` [Compound 370, N-(1-(4-cyanobenzyl)piperidin-4-yl)-6-(4-(4-(dimethylamino)phenoxy)piperidine-1-carbonyl)nicotinamide], the EC50 was less than 500 nM.

— US9663496B2, “AMPK-activating heterocyclic compounds and methods for using the same” (Rigel Pharmaceuticals, Inc., priority 2010, dated 2017)
